Source: article PMC7070908, “Structure-Guided Identification of Black Cohosh (Actaea racemosa) Triterpenoids with In Vitro Activity against Multiple Myeloma” (Molecules, 2020)
Converted amounts (≈) assume the structure as drawn.

Legend:
[1] = test system: NCI-H929 myeloma cell line; assay: Cytotoxicity, flow cytometry (AnnexinV/propidium iodide negativity), NCI-H929; type: cell-based, human
Description: (§1) Induction of apoptosis was measured in myeloma cell lines NCI-H929, OPM-2, and U266 as well as in peripheral blood mononuclear cells (PBMCs) of healthy donors by flow cytometry using established protocols thereby staining the cells with AnnexinV-fluorescein isothiocyanate and propidium iodide. Bortezomib (Eubio, Vienna, Austria) was used as positive control. Cell lines were purchased from DSMZ (Braunschweig, Germany) and routinely fingerprinted and tested for mycoplasma negativity. All cells (cell lines and PBMC) were grown in RPMI-1640 medium (Life Technologies, Paisley, UK) supplemented with 10% fetal calf serum (FCS; PAA, Linz, Austria), L-glutamine 100 µg/mL, and penicillin-streptomycin 100 U/mL. PBMCs from healthy donors were used after obtaining written informed consent at the University Hospital Salzburg (ethics committee approval 415-E/1287/6-2011). Cells were subjected to Ficoll separation (Ficoll PaqueTM) and incubated in RPMI-1640 Media with supplements as above. In brief, 0.5 × 10^6 myeloma cells/mL or similar numbers of PMBCs were incubated for 24 h and 48 h with or without the tested compounds dissolved in dimethyl sulfoxide at different concentrations. At least three analyses in triplicates were performed for each cell line and a solvent control was always included. As a positive control, the proteasome inhibitor bortezomib (BTZ) was used at concentrations of 10 and 5 nM. The extent of non-apoptotic cells (AnnexinV/propidium iodide negativity) was calculated as percentage of viable cells in respect to the untreated control. Data are shown as mean percentage of viable cells and standard error of the mean (SEM) (error bars).

[2] = test system: OPM-2 myeloma cell line; assay: Cytotoxicity, flow cytometry (AnnexinV/propidium iodide negativity), OPM-2; type: cell-based, human
Description: as §1

[3] = test system: peripheral blood mononuclear cells (PBMCs) of healthy donors; assay: Cytotoxicity, flow cytometry (AnnexinV/propidium iodide negativity), PBMC of healthy donors; type: cell-based, human
Description: as §1

[4] = test system: U266 myeloma cell line; assay: Cytotoxicity, flow cytometry (AnnexinV/propidium iodide negativity), U266; type: cell-based, human
Description: as §1

[5] = test system: normal human gingival fibroblasts (HGF); design: method as in PMID 11824572; details: cited from earlier work
[6] = test system: human squamous cell carcinoma (HSC-2) cells; design: method as in PMID 11824572; details: cited from earlier work
[7] = test system: GABA(A)-receptors; design: method as in PMID 21082802; details: cited from earlier work
[8] = test system: doxorubicin-resistant-MCF7 (R-MCF7) cells; design: method as in PMID 20564500; details: doxorubicin-resistant MCF7, 48 h of incubation; cited from earlier work
[9] = test system: MCF7 cells; design: method as in PMID 20564500; details: 48 h of incubation; cited from earlier work
[10] = test system: MCF7 breast cancer cells; design: method as in PMID 14758092; details: incubation times of 96 h; cited from earlier work
[11] = 12.5 µM, 24 h, second round (Table 3)
[12] = 25 µM, 24 h, second round (Table 3)
[13] = 37.5 µM, 24 h, second round (Table 3)
[14] = 25 µM, 24 h, % of untreated control, mean ± SEM (Table 1)
[15] = 25 µM, 48 h, % of untreated control, mean ± SEM (Table 2)
[16] = 50 µM, 24 h, % of untreated control, mean ± SEM (Table 1)
[17] = 50 µM, 48 h, % of untreated control, mean ± SEM (Table 2)

SMILES	MM Cells % Alive NCI-H929 [1, 14] [%]	MM Cells % Alive NCI-H929 [1, 15] [%]	MM Cells % Alive NCI-H929 [1, 16] [%]	MM Cells % Alive NCI-H929 [1, 17] [%]	MM Cells % Alive OPM-2 [2, 14] [%]	MM Cells % Alive OPM-2 [2, 15] [%]	MM Cells % Alive OPM-2 [2, 16] [%]	MM Cells % Alive OPM-2 [2, 17] [%]	PBMC % Alive [3, 14] [%]	PBMC % Alive [3, 15] [%]	PBMC % Alive [3, 16] [%]	PBMC % Alive [3, 17] [%]	MM Cells % Alive U266 [4, 14] [%]	MM Cells % Alive U266 [4, 15] [%]	MM Cells % Alive U266 [4, 16] [%]	MM Cells % Alive U266 [4, 17] [%]	also measured
COC(C)(C)C1OC23OC1CC(C)C2C1(C)CCC24CC25CCC(OC2OCC(O)C(O)C2O)C(C)(C)C5CCC4C1(C)C3O [Compound 7, 25-O-methylcimigenol-3-O-α-L-arabinopyranoside]																	MM Cells % Alive NCI-H929 [1, 11]: 95.5 ± 1.8%; MM Cells % Alive NCI-H929 [1, 12]: 34.3 ± 8.0%; MM Cells % Alive NCI-H929 [1, 13]: 2.5 ± 1.3%; IC50 ([1]; Homo sapiens, NCI-H929, 24 h, incubation for 24 h): 14.7 µg/mL (≈ 23.2 µM); MM Cells % Alive OPM-2 [2, 11]: 99.8 ± 1.7%; MM Cells % Alive OPM-2 [2, 12]: 88.0 ± 4.5%; MM Cells % Alive OPM-2 [2, 13]: 31.3 ± 8.6%; IC50 ([2]; Homo sapiens, OPM-2, 24 h, incubation for 24 h): 21.2 µg/mL (≈ 33.4 µM); PBMC % Alive [3, 11]: 105.3 ± 0.6%; PBMC % Alive [3, 12]: 81.0 ± 8.5%; PBMC % Alive [3, 13]: 25.0 ± 6.3%; IC50 ([3]; Homo sapiens, PBMC, 24 h, incubation for 24 h): 19.9 µg/mL (≈ 31.3 µM); MM Cells % Alive U266 [4, 11]: 97.0 ± 3.5%; MM Cells % Alive U266 [4, 12]: 51.3 ± 11.8%; MM Cells % Alive U266 [4, 13]: 5.3 ± 2.8%; IC50 ([4]; Homo sapiens, U-266, 24 h, incubation for 24 h): 16.2 µg/mL (≈ 25.5 µM); IC50 U266 ([4]; incubation for 24 h): 16.1 µg/mL (≈ 25.4 µM); cytotoxic effects against HGF (in words) [5]: moderate effects; cytotoxic effects against HSC-2 cells (in words) [6]: moderate effects
CC(=O)OC(CC(C)C1C(=O)C(O)C2(C)C3CCC4C(C)(C)C(OC5OCC(O)C(O)C5O)CCC45CC35CCC12C)C1OC1(C)C [Compound 2, 23-O-acetylshengmanol-3-O-β-D-xylopyranoside]	87.7 ± 4.9	63.9 ± 10.6	27.9 ± 12.2	17.4 ± 7.3	86.2 ± 8.6	84.6 ± 1.0	71.0 ± 11.2	51.7 ± 8.9	94.7 ± 1.8	92.7 ± 1.7	84.0 ± 3.0	76.1 ± 2.1	79.4 ± 20.2	90.2 ± 1.7	56.3 ± 21.4	62.1 ± 0.4	effect on GABA(A)-receptors, factor by which it exceeds actein (1) and compound 3 [7]: > 5; IC50 R-MCF7 [8]: 60 µg/mL (≈ 90.5 µM); IC50 MCF7 [9]: 39 µg/mL (≈ 58.8 µM)
CC(=O)O[C@@H]1C[C@@]23C[C@@]24CC[C@H](O[C@@H]2OC[C@@H](O)[C@H](O)[C@H]2O)C(C)(C)[C@@H]4CC[C@H]3[C@]2(C)C[C@@H]3O[C@]4(C[C@@H](C)[C@@H]3[C@@]12C)O[C@H](O)[C@@]1(C)O[C@@H]41 [Compound 1, actein]	80.5 ± 5.9	70.2 ± 4.3	48.2 ± 10.9	13.2 ± 2.4	93.2 ± 3.7	93.1 ± 2.4	81.1 ± 4.7	67.3 ± 6.7	96.4 ± 0.1	94.6 ± 0.2	85.6 ± 1.2	74.9 ± 1.2	90.2 ± 4.1	81.0 ± 5.9	75.1 ± 6.4	35.5 ± 6.7	IC50 growth inhibition of MCF7 breast cancer cells [10]: 14 µg/mL
